Source: patent US11747352B2 (Concordia University, Inc., priority 2017, dated 2023)
Like-named read-outs stand apart in the source and are kept apart here. Marks after values point to notes of the source that are not given here.

What was measured:
[1] = cited from earlier work; for T½: Table of Tyrosine Kinase Inhibitor Substrates
[2] = cited from earlier work; for F %: Table of Tyrosine Kinase Inhibitor Substrates, CYP3A4
plasma protein = conditions: cited from earlier work; for Protein binding %: Table of Tyrosine Kinase Inhibitor Substrates
CYP3A = conditions: cited from earlier work
CYP3A5 [3] = molecular target: T1, CYP3A5 (Homo sapiens, UniProt P20815); conditions: cited from earlier work
CYP3A5 [4] = molecular target: T1, CYP3A5; experiment: Tacrolimus metabolism by rhCYP3A5 (Kamdem et al. 2005); assay type: in vitro ADME; conditions: rhCYP3A5 vs rhCYP3A4
[5] = tested on: human liver microsomes (HLM, Xenotech); conditions: cited from earlier work
[6] = cited from earlier work
[7] = Eplerenone metabolism via pooled human liver microsomes (HLM150); assay type: in vitro ADME; conditions: human, pooled human liver microsomes (HLM150, 150 donors), HLM 150, Corning/BD
[8] = tested on: human liver microsomes (HLM150); experiment: as above; assay type: in vitro ADME; conditions: for Vmax: HLM 150, Corning/BD
[9] = substrate: COC(=O)[C@@H]1CC2=CC(=O)CC[C@]2(C)[C@@]23O[C@@H]2C[C@@]2(C)[C@@H](CC[C@@]24CCC(=O)O4)[C@H]13; experiment: cells, lysate or membranes named; assay type: in vitro ADME, human

In the case of `CNC1(c2ccccc2Cl)CCCCC1=O` (stereo not shown) [Ketamine], the “HALF LIFE” value ([1]; in vivo) is given as 2 to 3 h and the “BIOAV[…]” value ([2]; in vivo, im) is given as “IM: 90-93%, PO: 16%”.

In the case of `CCCCC1=NC2(CCCC2)C(=O)N1Cc1ccc(-c2ccccc2-c2nnn[nH]2)cc1` [Irbesartan], the “HALF LIFE” value ([1]; Table CYP2C9) is given as 11 to 15 h and the “ORAL BIOAVAILABILITY” value ([2]; Table CYP2C9) is given as 60-80% ^.

For `CC(=O)[C@H]1CC[C@H]2[C@@H]3CCC4=CC(=O)CC[C@]4(C)[C@H]3CC[C@]12C` [Progesterone], the “PLASMA PROTEIN BINDING” value (plasma protein; Table CYP2C19) is listed as 96-99% ^.

For `CNCCC(Oc1ccc(C(F)(F)F)cc1)c1ccccc1` (stereo not shown) [Fluoxetine], the “HALF LIFE” value ([1]; Table CYP2C9) is listed as 96 to 140 h, the “HALF LIFE” value ([1]; Table CYP2D6) is listed as 96 to 140 h and the “ORAL BIOAVAILABILITY” value ([2]; Table CYP2C9) is listed as 60-80% ^. For the same molecule, the “ORAL BIOAVAILABILITY” value ([2]; Table CYP2D6) was 60-80% ^.

For `Cc1nnc2n1-c1ccc(Cl)cc1C(c1ccccc1)=NC2` [Alprazolam], the “All CYP3A (% Metabolism)” value (CYP3A) is given as 62% and the “CYP3A5 (% Metabolism)” value (CYP3A5 [3]) is given as less than 10%.

For `C=CC[C@@H]1/C=C(\C)C[C@H](C)C[C@H](OC)[C@H]2O[C@@](O)(C(=O)C(=O)N3CCCC[C@H]3C(=O)O[C@H](/C(C)=C/[C@@H]3CC[C@@H](O)[C@H](OC)C3)[C@H](C)[C@@H](O)CC1=O)[C@H](C)C[C@@H]2OC` [Tacrolimus], the “higher catalytic efficiency via CYP3A5” value (CYP3A5 [4]) is listed as 60% and the “ORAL BIOAVAILABILITY” value ([2]; Table CYP3A4) is listed as 17-31% ^.

In the case of `O=C1NC(=O)C(c2ccccc2)(c2ccccc2)N1` [Phenytoin], the “HALF LIFE” value ([1]; Table CYP2C9) is listed as 14 to 22 h and the “ORAL BIOAVAILABILITY” value ([2]; Table CYP2C9) is listed as 20-90% ^.

In the case of `COc1ccccc1OCCNCC(O)COc1cccc2[nH]c3ccccc3c12` (stereo not shown) [Carvedilol], the “HALF LIFE” value ([1]; Table CYP2D6) is listed as 6 to 10 h and the “ORAL BIOAVAILABILITY” value ([2]; Table CYP2D6) is listed as 25-35% ^.

In the case of `CC(C)NCC(O)COc1cccc2ccccc12` (stereo not shown) [Propranolol], the “HALF LIFE” value ([1]; Table CYP2D6) is given as 3 to 6 h and the “ORAL BIOAVAILABILITY” value ([2]; Table CYP2D6) is given as 30-70% ^.

For `COc1cc2ncnc(Nc3ccc(F)c(Cl)c3)c2cc1OCCCN1CCOCC1` [Gefitinib], the Protein binding % (plasma protein) is given as 90%, the T½ [1] is given as 6 to 49 h and the F % [2] is given as 59%.

For `COC(=O)[C@@H]1CC2=CC(=O)CC[C@]2(C)[C@@]23O[C@@H]2C[C@@]2(C)[C@@H](CC[C@@]24CCC(=O)O4)[C@H]13` [Eplerenone], the Km ([5]; 6β-OH metabolite formation) is listed as 217 µM, the Vmax ([5]; 6β-OH metabolite formation) is listed as 973 pmol/min/mg and the Km ([5]; 21-OH metabolite formation) is listed as 211 µM. The Vmax ([5]; 21-OH metabolite formation) was 143 pmol/min/mg, the “Permeability model Caco-2” value ([6]; Caco-2) was “Caco-2 (24* 10^−6 cm/s)” and the “Compound Type” value ([6]; SimCYP model parameter) was “Neutral”. The “ka” value ([6]; SimCYP model parameter) was 1.647 h⁻¹, the Km at 10 min ([7]; 6β-OH metabolite formation) was 473 µM and the Km at 10 min ([7]; 21-OH metabolite formation) was 197 µM. For the same molecule, the Vmax ([8]; 6β-OH metabolite formation) was 1493 pmol/min/mg, the Vmax ([8]; 21-OH metabolite formation) was 216 pmol/min/mg and the “ISEF for recombinant CYP3A4/5” value ([8]; HLM 150 vs rhCYP3A4 and rhCYP3A5 clearances, Eq. 1) was 1.0.

For `C#Cc1cccc(Nc2ncnc3cc(OCCOC)c(OCCOC)cc23)c1` [Erlotinib], the Protein binding % (plasma protein) is listed as 95%.

In the case of `Cc1ncc2n1-c1ccc(Cl)cc1C(c1ccccc1F)=NC2` [Midazolam], the “All CYP3A (% Metabolism)” value (CYP3A) is given as 92%, the “CYP3A5 (% Metabolism)” value (CYP3A5 [3]) is given as 43% and the “AUC fold higher than average” value (CYP3A4/5) is given as 2.3 fold. The “AUC fold lower than the mean” value (CYP3A4/5) was 4.1 fold.

For `OC(CNCC(O)C1CCc2cc(F)ccc2O1)C1CCc2cc(F)ccc2O1` (stereo not shown) [Nebivolol], the “HALF LIFE” value ([1]; Table CYP2D6) is listed as 12 to 19 h and the “ORAL BIOAVAILABILITY” value ([2]; Table CYP2D6) is listed as 12-96% ^.

In the case of `CC(C)(O)c1ccccc1CC[C@@H](SCC1(CC(=O)O)CC1)c1cccc(/C=C/c2ccc3ccc(Cl)cc3n2)c1` [Montelukast], the “PLASMA PROTEIN BINDING” value (plasma protein; Table CYP2C9) is listed as greater than 99%, the “HALF LIFE” value ([1]; Table CYP2C9) is listed as 2.7 to 5.5 h and the “ORAL BIOAVAILABILITY” value ([2]; Table CYP2C9) is listed as 64-73% ^.

In the case of `CN(C)CCC=C1c2ccccc2CCc2ccccc21` [Amitriptyline], the “HALF LIFE” value ([1]; Table CYP1A2) is listed as roughly 13 to 36 h, the “HALF LIFE” value ([1]; Table CYP2D6) is listed as roughly 13 to 36 h and the “ORAL BIOAVAILABILITY” value ([2]; Table CYP2C9) is listed as 30-60% ^. For the same molecule, the “ORAL BIOAVAILABILITY” value ([2]; Table CYP2D6) was ~43-46% ^.

For `CCCN1CCCC[C@H]1C(=O)Nc1c(C)cccc1C` [Ropivacaine], the “HALF LIFE” value ([1]; Table CYP1A2) is listed as 5 to 7 h and the “ORAL BIOAVAILABILITY” value ([2]; Table CYP1A2, printed as IV) is listed as 87-98% - IV.

For `COc1ccc(C(=O)Nc2ccccc2CCC2CCCCN2C)cc1` (stereo not shown) [Encainide], the “HALF LIFE” value ([1]; Table CYP2D6) is listed as 11.3 h and the “ORAL BIOAVAILABILITY” value ([2]; Table CYP2D6) is listed as 25-90% ^.

For `CC(C)(C)NC(=O)[C@@H]1C[C@@H]2CCCC[C@@H]2CN1C[C@@H](O)[C@H](Cc1ccccc1)NC(=O)[C@H](CC(N)=O)NC(=O)c1ccc2ccccc2n1` [Saquinavir], the “All CYP3A (% Metabolism)” value (CYP3A) is given as 99% and the “CYP3A5 (% Metabolism)” value (CYP3A5 [3]) is given as 11%.

In the case of `Cc1nnc2n1-c1ccc(Cl)cc1C(c1ccccc1Cl)=NC2` [Triazolam], the “All CYP3A (% Metabolism)” value (CYP3A) is given as 92% and the “CYP3A5 (% Metabolism)” value (CYP3A5 [3]) is given as 25%.

In the case of `COC(=O)[C@@H]1CC2=CC(=O)CC[C@]2(C)[C@@]23O[C@@H]2C[C@@]2(C)[C@@H](CC[C@@]24CC(O)C(=O)O4)[C@H]13` (stereo partly shown) [21OH-EP, 21-hydroxyeplerenone], the “Compound Type” value ([6]; SimCYP model parameter) is given as “Neutral” and the Blood/plasma ratio [6] is given as 1.

In the case of `CCCCCc1cc(O)c2c(c1)OC(C)(C)[C@@H]1CCC(C)=C[C@@H]21` [THC], the “HALF LIFE” value ([1]; Table CYP2C9) is given as 1.6 to 59 h and the “ORAL BIOAVAILABILITY” value ([2]; Table CYP2C9) is given as 10-35% ^.

For `[H]/N=C(/N)N/C(=N/[H])NCCc1ccccc1` [Phenformin], the “HALF LIFE” value ([1]; Table CYP2D6) is given as 4 to 13 h and the “ORAL BIOAVAILABILITY” value ([2]; Table CYP2D6) is given as 40-60% ^.

In the case of `Cc1cccc(C)c1OCC(C)N` (stereo not shown) [Mexiletine], the “HALF LIFE” value ([1]; Table CYP1A2) is listed as 10 to 12 h, the “HALF LIFE” value ([1]; Table CYP2D6) is listed as 6 to 17 h and the “ORAL BIOAVAILABILITY” value ([2]; Table CYP2D6) is listed as 80-90% ^.

For `CNC(=O)c1cc(Oc2ccc(NC(=O)Nc3ccc(Cl)c(C(F)(F)F)c3)cc2)ccn1` [sorafenib], the Protein binding % (plasma protein) is given as 99.5%, the T½ [1] is given as 25 to 48 h and the F % [2] is given as 38-49%.

For `COC(=O)[C@H]1[C@H]2[C@@H]3CC[C@@]4(CCC(=O)O4)[C@@]3(C)C[C@H]3O[C@@]23[C@@]2(C)CCC(=O)C=C2[C@@H]1O` [6OH-EP, 6β-hydroxyeplerenone], the “Compound Type” value ([6]; SimCYP model parameter) is listed as “Neutral” and the Blood/plasma ratio [6] is listed as 1.

In the case of `C=C[C@H]1C[N@@]2CC[C@H]1C[C@@H]2[C@@H](O)c1ccnc2ccc(OC)cc12` [Quinidine], the “All CYP3A (% Metabolism)” value (CYP3A) is listed as 93% and the “ORAL BIOAVAILABILITY” value ([2]; Table CYP3A4) is listed as 70-80% ^.

For `Cc1ccc(Nc2nccc(N(C)c3ccc4c(C)n(C)nc4c3)n2)cc1S(N)(=O)=O` [pazopanib], the Protein binding % (plasma protein) is given as greater than 99.5%, the T½ [1] is given as 30.9 to 31.9 h and the F % [2] is given as 14-21%.

In the case of `CN1C(C(=O)Nc2ccccn2)=C(O)c2sc(Cl)cc2S1(=O)=O` [Lomoxicam], the “HALF LIFE” value ([1]; in vivo) is listed as 4 h and the “BIOAVAILABILITY IM” value ([2]; in vivo, im) is listed as “IM: 87%”.

In the case of `CCN(CC)CCNC(=O)c1c(C)[nH]c(/C=C2\C(=O)Nc3ccc(F)cc32)c1C` [Sunitinib], the Protein binding % (plasma protein) is given as 95%, the T½ [1] is given as 40 to 60 h and the F % [2] is given as 50%.

B1: rhCYP3A5 (Homo sapiens) (protein)
chain: MDLIPNLAVETWLLLAVSLVLLYLYGTRTHGLFKRLGIPGPTPLPLLGNVLSYRQGLWKFDTECYKKYGKMWGTYEGQLPVLAITDPDVIRTVLVKECYSVFTNRRSLGPVGFMKSAISLAEDEEWKRIRSLLSPTFTSGKLKEMFPIIAQYGDVLVRNLRREAEKGKPVTLKDIFGAYSMDVITGTSFGVNIDSLNNPQDPFVESTKKFLKFGFLDPLFLSIILFPFLTPVFEALNVSLFPKDTINFLSKSVNRMKKSRLNDKQKHRLDFLQLMIDSQNSKETESHKALSDLELAAQSIIFIFAGYETTSSVLSFTLYELATHPDVQQKLQKEIDAVLPNKAPPTYDAVVQMEYLDMVVNETLRLFPVAIRLERTCKKDVEINGVFIPKGSMVVIPTYALHHDPKYWTEPEEFRPERFSKKKDSIDPYIYTPFGTGPRNCIGMRFALMNMKLALIRVLQNFSFKPCKETQIPLKLDTQGLLQPEKPIVLKVDSRDGTLSGE
notes: purchased BD Biosciences/Corning
Molecule B1 has a Km ([9]; other: 6β-OH metabolite formation, rhCYP3A5 (printed rhCYPA5)) of 142 mcM and a Km ([9]; other: 21-OH metabolite formation, rhCYP3A5) of 72 mcM.
